Target: T1, human S6K1 (RPS6KB1) protein, residues 1–421 with the T412E mutation (Homo sapiens, UniProt P23443, T412E)
T1 construct: the human S6K1 (RPS6KB1) protein, residues 1–421 with the T412E mutation; purchased Carna Biosciences (Kobe, Japan)
Test: Kinase mobility shift assay
Format: biochemical
Conditions: S6K1 residues 1–421, T412E mutation; 2 nM enzyme; 30 min pre-incubation; ATP 0.5 mM; FL-Peptide 26 1.5 μM
Method: The mobility shift assay was performed as reported. Briefly, the reaction buffer consisted of 50 mM Hepes (pH 7.4), containing 10 mM MgCl2, 0.01 %(w/v) Brij-35, 1 mM dithiothreitol (DTT), 1 %(v/v) Protease Inhibitor Cocktail Set V [Calbiochem (EMD Millipore), Darmstadt, Germany], 1 %(v/v) Phosphatase Inhibitor Cocktail Set III [Calbiochem (EMD Millipore), Darmstadt, Germany], and 0.6 %(v/v) DMSO. […] The S6K1 protein (final concentration of 2 nM) in the reaction buffer was first incubated with different concentrations of the compounds (0–10 μM) for 30 min. […] The kinase reactions were performed at room temperature, and stopped by the addition of termination buffer [50 mM Hepes buffer (pH 7.4), containing 140 mM EDTA and 0.01 %(w/v) Brij-35]. The phosphorylated and unphosphorylated peptides thus obtained were separated and quantified with a Lab-Chip EZ Reader II (PerkinElmer, MA). Data were fitted using a sigmoidal dose–response regression algorithm in GraphPad Prism (GraphPad Software, La Jolla, CA).

T1 sequence (P23443 1-421 T412E): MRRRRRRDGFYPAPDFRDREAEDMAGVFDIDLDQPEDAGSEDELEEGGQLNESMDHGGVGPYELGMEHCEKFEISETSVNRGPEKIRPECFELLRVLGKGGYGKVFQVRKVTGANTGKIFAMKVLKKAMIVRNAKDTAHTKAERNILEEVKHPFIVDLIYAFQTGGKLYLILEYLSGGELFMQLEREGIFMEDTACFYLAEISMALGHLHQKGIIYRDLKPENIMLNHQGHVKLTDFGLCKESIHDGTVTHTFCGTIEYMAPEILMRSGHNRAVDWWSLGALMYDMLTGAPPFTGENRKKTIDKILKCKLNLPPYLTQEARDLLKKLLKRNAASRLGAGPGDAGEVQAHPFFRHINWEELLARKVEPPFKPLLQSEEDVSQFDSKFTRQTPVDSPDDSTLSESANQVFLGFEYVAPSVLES

Structure (SMILES)	IC50 [nM]
c1ccc2[nH]c(C3CCN(c4ncnc5[nH]ncc45)CC3)nc2c1 [Compound F108, 4-[4-(1H-benzimidazol-2-yl)piperidin-1-yl]-1H-pyrazolo[3,4-d]pyrimidine]	81
C1=C(c2c[nH]c3ccccc23)CCN(c2ncnc3[nH]ncc23)C1 [Compound F109, 4-[4-(1H-indol-3-yl)-3,6-dihydropyridin-1(2H)-yl]-1H-pyrazolo[3,4-d]pyrimidine]	33
NS(=O)(=O)c1ccc(NC(=O)COC(=O)c2c3c(nc4ccccc24)CCCCC3)cc1 [Compound F176, 2-oxo-2-[(4-sulfamoylphenyl)amino]ethyl 7,8,9,10-tetrahydro-6H-cyclohepta[b]quinoline-11-carboxylate]	232
CC1CCc2nc3ccccc3c(C(=O)OC(C)C(=O)Nc3ccc(S(N)(=O)=O)cc3)c2C1 (centres unmarked) [Compound F177, 1-oxo-1-[(4-sulfamoylphenyl)amino]propan-2-yl-2-methyl-1,2,3,4-tetrahydroacridine-9-carboxylate]	567
O=C(Nc1cccc(C(F)(F)F)c1)C1CCN(c2ncnc3[nH]cnc23)CC1 [Compound F179, 1-(9H-purin-6-yl)-N-[3-(trifluoromethyl)phenyl]piperidine-4-carboxamide]	206
